B1: CstA (CstA-6His) (Escherichia coli K-12) (protein)
chain: MNKSGKYLVWTVLSVMGAFALGYIALNRGEQINALWIVVASVCIYLIAYRFYGLYIAKNVLAVDPTRMTPAVRHNDGLDYVPTDKKVLFGHHFAAIAGAGPLVGPVLAAQMGYLPGMIWLLAGVVLAGAVQDFMVLFVSTRRDGRSLGELVKEEMGPTAGVIALVACFMIMVIILAVLAMIVVKALTHSPWGTYTVAFTIPLALFMGIYLRYLRPGRIGEVSVIGLVFLIFAIISGGWVAESPTWAPYFDFTGVQLTWMLVGYGFVAAVLPVWLLLAPRDYLSTFLKIGTIVGLAVGILIMRPTLTMPALTKFVDGTGPVWTGNLFPFLFITIACGAVSGFHALISSGTTPKMLANEGQACFIGYGGMLMESFVAIMALVSACIIDPGVYFAMNSPMAVLAPAGTADVVASAAQVVSSWGFSITPDTLNQIASEVGEQSIISRAGGAPTLAVGMAYILHGALGGMMDVAFWYHFAILFEALFILTAVDAGTRAARFMLQDLLGVVSPGLKRTDSLPANLLATALCVLAWGYFLHQGVVDPLGGINTLWPLFGIANQMLAGMALMLCAVVLFKMKRQRYAWVALVPTAWLLICTLTAGWQKAFSPDAKVGFLAIANKFQAMIDSGNIPSQYTESQLAQLVFNNRLDAGLTIFFMVVVVVLALFSIKTALAALKDPKPTAKETPYEPMPENVEEIVAQAKGAH
notes: full-length, 701 residues, 6His tag, from plasmid pBAD24-cstA6H (uninduced) in intact E. coli MG1655 ΔbtsT ΔcstA ΔyhjX cells; inner membrane protein, TC# 2.A.114

Tests used:
CstA (CstA-6His) = biological target: T1, CstA (CstA-6His) (Escherichia coli, UniProt P15078); assay: competition with […]pyruvate uptake into intact cells, rapid filtration; assay type: cell-based; conditions: 1 mM competitor against 10 µM [14C]pyruvate; Tris/MES pH 7.5, 5 mM MgCl2, 15 °C; competitor for the pyruvate site
T1 construct: full-length, 701 residues, 6His tag, from plasmid pBAD24-cstA6H (uninduced) in intact E. coli MG1655 ΔbtsT ΔcstA ΔyhjX cells; inner membrane protein, TC# 2.A.114

[1] = substrate: CC(=O)C(=O)O; assay: cells, lysate or membranes; assay type: cell-based, Escherichia coli; conditions: labelled compound, intact cells of 3Δ mutant with p-cstA, Tris/MES pH 7.5, 5 mM MgCl2, 15 °C, background of 3Δ mutant subtracted, proton-gradient driven

| Molecule | competition with [14C]pyruvate uptake into intact cells, rapid filtration (CstA (CstA-6His)) | Km [1] |
| --- | --- | --- |
| O=C(O)C(=O)CBr [Br-pyruvate] | Only pyruvate itself or Br-pyruvate (a synthetic analogue) were found to act as competitors. | – |
| B1 | – | 242 µM |

— PMC7730263, “Function and Regulation of the Pyruvate Transporter CstA in Escherichia coli” (International Journal of Molecular Sciences, 2020)
